Data taken from patent publication US20040185016A1, “Compositions for treatment of hyperpigmentation and methods for making and using such compositions” (priority 2002, published 2004).
Read-outs that look alike come from different tables or passages of the source. Values belong to the compound of their own block, whether it stands above or below them.

Assays:
[1] = chemical stability of selected ingredients in the composition of Example 3 (HPLC assay); conditions: in composition of Example 3
Protocol: (§1) The composition of Example 3 was subjected to a range of temperatures over a prolonged period of time to determine the chemical stability of selected ingredients.
(§2) Next, chemical stability of avobenzone was determined using a suitable HPLC assay.
(§3) Next, the chemical stability of octyl methoxycinnamate was determined using a suitable HPLC assay.
(§4) Next, the chemical stability of the oxybenzone sunscreen was determined for 30 and 60 days at 6° C., 25° C., 30° C., and 40° C. using a suitable HPLC assay.
(§5) Next, the chemical stability of the oxybenzone sunscreen at 90 days was determined using a suitable HPLC assay.

[2] = in composition of Example 1; 30 and 90 days
Protocol: The composition of Example 1 was subjected to a range of temperatures over a period of time from 30 to 90 days to determine the chemical stability of selected ingredients. […] “FT” refers to freeze thaw conditions (−10° to −20° C.) where the product is exposed to freezing conditions for two days and then allowed to that at controlled room temperature (15° to 30° C.) for the next five days.

[3] = 0 days
Protocol: as §1, §2, §3, §4, §5

- ingredient activity after exposure of the formulation to high and low temperatures ([1]; 30 to 90 days): remained active
- ingredient activity after exposure of the formulation to high and low temperatures [2]: remained active
- ingredient content, chemical stability by HPLC [3]: 3.03 % W/W
Structure (SMILES): COc1ccc(C(=O)CC(=O)c2ccc(C(C)(C)C)cc2)cc1 [avobenzone]

- ingredient activity after exposure of the formulation to high and low temperatures ([1]; 30 to 90 days): remained active
- ingredient activity after exposure of the formulation to high and low temperatures [2]: remains active
- ingredient content, chemical stability by HPLC [3]: 3.95 % W/W
Structure (SMILES): Oc1ccc(O)cc1 [hydroquinone]

- ingredient activity after exposure of the formulation to high and low temperatures ([1]; 30 to 60 days): remained active
- ingredient activity after exposure of the formulation to high and low temperatures ([1]; 30 to 90 days): remained active
- ingredient content, chemical stability by HPLC ([1]; 30 days, 25°): 5.98 % W/W
- ingredient content, chemical stability by HPLC ([1]; 30 days, 30°): 5.95 % W/W
- ingredient content, chemical stability by HPLC ([1]; 30 days, 40°): 6.04 % W/W
- ingredient content, chemical stability by HPLC ([1]; 60 days, 25°): 6.04 % W/W
- ingredient content, chemical stability by HPLC ([1]; 60 days, 30°): 6.02 % W/W
- ingredient content, chemical stability by HPLC ([1]; 60 days, 40°): 6.07 % W/W
- ingredient content, chemical stability by HPLC ([1]; 90 days, 6°): 6.05 % W/W
- ingredient content, chemical stability by HPLC ([1]; 90 days, 25°): 6.09 % W/W
- ingredient content, chemical stability by HPLC ([1]; 90 days, 30°): 6.07 % W/W
- ingredient content, chemical stability by HPLC ([1]; 90 days, 40°): 6.06 % W/W
- ingredient content, chemical stability by HPLC ([1]; 90 days, FT (freeze thaw)): 6.09 % W/W
- ingredient content, chemical stability by HPLC ([1]; day 0, 25°): 6.07 % W/W
Structure (SMILES): COc1ccc(C(=O)c2ccccc2)c(O)c1 [oxybenzone]

- ingredient content, chemical stability by HPLC [3]: 7.61 % W/W
Structure (SMILES): CCCCC(CC)COC(=O)C=Cc1ccc(OC)cc1 (stereo not drawn) [octyl methoxycinnamate]
